Measurements: PubChem BioAssay AID248 (DTP/NCI, 2004)
Toxic doses and inconclusive results are not listed. Rule as the data show it: active = T/C of 150% or more; inactive = T/C below 125%.

Test system: L1210 leukemia ip in BDF1 mice, survival T/C
Test: NCI In Vivo Anticancer Drug Screen. Data for tumor model L1210 Leukemia (intraperitoneal) in B6D2F1 (BDF1) mice
Details: endpoint: mean survival time, higher = longer survival
Procedure, shortened: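 Value reflects the ratio of survival in compound-treated mice to survival in vehicle-treated controls, with both groups carrying the same transplanted tumor.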

[1] = dose: 100.0 mg/kg/injection, schedule: Q01DX001 (ip), vehicle: carboxymethylcellulose (CMC)
[2] = dose: 200.0 mg/kg/injection, schedule: Q01DX001 (ip), vehicle: carboxymethylcellulose (CMC)
[3] = dose: 400.0 mg/kg/injection, schedule: Q01DX001 (ip), vehicle: carboxymethylcellulose (CMC)

Measured: T/C

Brc1ccc(-c2csc(Nc3nc(-c4ccc(Br)cc4)cs3)n2)cc1
inactive: [1] 102 % of control | [2] 98 % of control | dose: 250.0 mg/kg/injection, schedule: Q01DX015 (ip), vehicle: carboxymethylcellulose (CMC) 100 % of control | [3] 107 % of control | dose: 500.0 mg/kg/injection, schedule: Q01DX015 (ip), vehicle: carboxymethylcellulose (CMC) 100 % of control | dose: 750.0 mg/kg/injection, schedule: Q01DX015 (ip), vehicle: carboxymethylcellulose (CMC) 113 % of control | dose: 1000.0 mg/kg/injection, schedule: Q01DX015 (ip), vehicle: carboxymethylcellulose (CMC) 100 % of control

Cc1cc(C)c(NC(=O)NC2CCCCC2)cc1C
inactive: dose: 100.0 mg/kg/injection, schedule: Q04DX002 (ip), vehicle: Klucel (hydroxypropylcellulose) (HPC) 105 % of control | dose: 200.0 mg/kg/injection, schedule: Q04DX002 (ip), vehicle: Klucel (hydroxypropylcellulose) (HPC) 94 % of control | dose: 400.0 mg/kg/injection, schedule: Q04DX002 (ip), vehicle: Klucel (hydroxypropylcellulose) (HPC) 94 % of control

Oc1cc2c(O)cccc2c2ccccc12
inactive: dose: 100.0 mg/kg/injection, schedule: Q04DX003 (ip), vehicle: saline with Tween-80 92 % of control | dose: 200.0 mg/kg/injection, schedule: Q04DX003 (ip), vehicle: saline with Tween-80 90 % of control

c1cc[n+]2c(c1)-c1cccc[n+]1CC2
inactive: dose: 6.25 mg/kg/injection, schedule: Q01DX009 (ip), vehicle: saline 108 % of control | dose: 12.5 mg/kg/injection, schedule: Q01DX009 (ip), vehicle: saline 104 % of control | dose: 12.5 mg/kg/injection, schedule: Q04DX003 (ip), vehicle: saline 104 % of control | dose: 15.0 mg/kg/injection, schedule: Q01DX001 (ip), vehicle: saline 95 % of control | dose: 25.0 mg/kg/injection, schedule: Q04DX003 (ip), vehicle: saline 104 % of control | dose: 30.0 mg/kg/injection, schedule: Q01DX001 (ip), vehicle: saline 102 % of control | dose: 50.0 mg/kg/injection, schedule: Q04DX003 (ip), vehicle: saline 101 % of control | dose: 60.0 mg/kg/injection, schedule: Q01DX001 (ip), vehicle: saline 102 % of control | dose: 75.0 mg/kg/injection, schedule: Q01DX001 (ip), vehicle: saline 95 % of control

CCCCCCCCCCC(=O)O
inactive: dose: 100.0 mg/kg/injection, schedule: Q01DX001 (ip), vehicle: Klucel (hydroxypropylcellulose) (HPC) 105 % of control | dose: 200.0 mg/kg/injection, schedule: Q01DX001 (ip), vehicle: Klucel (hydroxypropylcellulose) (HPC) 105 % of control | dose: 300.0 mg/kg/injection, schedule: Q01DX001 (ip), vehicle: Klucel (hydroxypropylcellulose) (HPC) 101 % of control

O=[n+]1ccn2cc3ccccc3cc2c1
inactive: dose: 12.5 mg/kg/injection, schedule: Q01DX009 (ip), vehicle: saline with Tween-80 105 % of control

COc1cc(Cl)ccc1NC(=O)Oc1ccc(F)cc1
inactive: dose: 100.0 mg/kg/injection, schedule: Q01DX009 (ip), vehicle: saline 123 % of control | dose: 200.0 mg/kg/injection, schedule: Q01DX009 (ip), vehicle: saline 101 % of control | dose: 400.0 mg/kg/injection, schedule: Q01DX009 (ip), vehicle: saline 115 % of control

O=C1C(Cl)=C(N2CCOCC2)C(=O)C(Cl)=C1N1CCOCC1
inactive: dose: 50.0 mg/kg/injection, schedule: Q01DX001 (ip), vehicle: carboxymethylcellulose (CMC) 94 % of control | [1] 92 % of control | [2] 99 % of control | [3] 97 % of control

CCC#CC(=O)OCC
inactive: dose: 100.0 mg/kg/injection, schedule: Q04DX002 (ip), vehicle: saline 108 % of control | dose: 200.0 mg/kg/injection, schedule: Q04DX002 (ip), vehicle: saline 97 % of control | dose: 400.0 mg/kg/injection, schedule: Q04DX002 (ip), vehicle: saline 105 % of control
